Source: US9718819B2 (Merck Sharp & Dohme Corp., priority 2012, dated 2017)

Target: HIV-1 RT wild-type enzyme (Human immunodeficiency virus type 1 group M subtype B (isolate HXB2) (HIV-1), UniProt P04585)
Assay: HIV-1 reverse transcriptase inhibitory activity (RT polymerase assay)
Type: biochemical
Conditions: HIV-1 RT wild-type enzyme 83 pM; RNA-dependent DNA polymerase activity; read-out: IC50
How it was run: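 Enzyme and compound were preincubated 30 min at room temperature, then RNA/DNA hybrid (16.6 nM final; HCV-derived RNA, biotinylated primer) plus 2 μM dNTPs and 66.6 nM Ru-dUTP added, 90 min at 37 °C. Avidin capture and ECL counting; percent inhibition relative to DMSO (0%) and 1 μM efavirenz (100%), four-parameter IC50 fit.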

| Structure (SMILES) | IC50 |
| --- | --- |
| Cc1ccc(-c2cc(Cn3cnc(C(F)(F)F)c(Oc4cc(Cl)cc(C#N)c4)c3=O)n[nH]c2=O)c(F)c1 [Example 42, 3-chloro-5-((1-((5-(2-fluoro-4-methylphenyl)-6-oxo-1,6-dihydropyridazin-3-yl)methyl)-6-oxo-4-(trifluoromethyl)-1,6-dihydropyrimidin-5-yl)oxy)benzonitrile] | 7 nM |
| CC(O)c1cc(Cn2cnc(C(F)(F)F)c(Oc3cc(Cl)cc(C#N)c3)c2=O)n[nH]c1=O (centres unmarked) [Example 14, 3-chloro-5-((1-((5-(1-hydroxyethyl)-6-oxo-1,6-dihydropyridazin-3-yl)methyl)-6-oxo-4-(trifluoromethyl)-1,6-dihydropyrimidin-5-yl)oxy)benzonitrile] | 109 nM |
| COc1cccc(F)c1-c1cc(Cn2cnc(C(F)(F)F)c(Oc3cc(Cl)cc(C#N)c3)c2=O)n[nH]c1=O [Example 51, 3-chloro-5-((1-((5-(2-fluoro-6-methoxyphenyl)-6-oxo-1,6-dihydropyridazin-3-yl)methyl)-6-oxo-4-(trifluoromethyl)-1,6-dihydropyrimidin-5-yl)oxy)benzonitrile] | 358 nM |
| Cc1cccc(-c2cc(Cn3cnc(C(F)(F)F)c(Oc4cc(Cl)cc(C#N)c4)c3=O)n[nH]c2=O)c1F [Example 38, 3-chloro-5-((1-((5-(2-fluoro-3-methylphenyl)-6-oxo-1,6-dihydropyridazin-3-yl)methyl)-6-oxo-4-(trifluoromethyl)-1,6-dihydropyrimidin-5-yl)oxy)benzonitrile] | 110 nM |
| N#Cc1cc(Cl)cc(Oc2c(C(F)(F)F)ncn(Cc3cnc(N)[nH]c3=O)c2=O)c1 [Example 143, 3-((1-((2-amino-6-oxo-1,6-dihydropyrimidin-5-yl)methyl)-6-oxo-4-(trifluoromethyl)-1,6-dihydropyrimidin-5-yl)oxy)-5-chlorobenzonitrile] | 7 nM |
| Cc1ncn(Cc2cc(-c3ccc(F)cc3)c(=O)[nH]n2)c(=O)c1Oc1cc(Cl)cc(C#N)c1 [Example 169, 3-chloro-5-((1-((5-(4-fluorophenyl)-6-oxo-1,6-dihydropyridazin-3-yl)methyl)-4-methyl-6-oxo-1,6-dihydropyrimidin-5-yl)oxy)benzonitrile] | 4 nM |
| COc1ccc(-c2cc(Cn3cnc(C(F)(F)F)c(Oc4cc(Cl)cc(C#N)c4)c3=O)n[nH]c2=O)cn1 [Example 74] | 17 nM |
| N#Cc1cc(Cl)cc(Oc2c(C(F)(F)F)ncn(Cc3cc(C#N)c(=O)[nH]n3)c2=O)c1 [Example 95, 6-((5-(3-chloro-5-cyanophenoxy)-6-oxo-4-(trifluoromethyl)pyrimidin-1(6H)-yl)methyl)-3-oxo-2,3-dihydropyridazine-4-carbonitrile] | 8 nM |
| N#Cc1cc(Cl)cc(Oc2c(OC(F)F)ncn(Cc3cc(-c4ccc(F)cc4)c(=O)[nH]n3)c2=O)c1 [Example 166] | 3 nM |
| N#Cc1cc(Cl)cc(Oc2c(C(F)(F)F)ncn(Cc3cnc(Oc4ccc(F)cc4)[nH]c3=O)c2=O)c1 [Example 140, 3-Chloro-5-{1-[2-(4-fluoro-phenoxy)-6-oxo-1,6-dihydro-pyrimidin-5-ylmethyl]-6-oxo-4-trifluoromethyl-1,6-dihydro-pyrimidin-5-yloxy}-benzonitrile] | 36 nM |
| N#Cc1cc(Cl)cc(Oc2c(C(F)(F)F)ncn(Cc3cc(-c4ccc(C(O)C(F)F)cc4)n[nH]c3=O)c2=O)c1 (centres unmarked) [Example 125, 3-chloro-5-((1-((6-(4-(2,2-difluoro-1-hydroxyethyl)phenyl)-3-oxo-2,3-dihydropyridazin-4-yl)methyl)-6-oxo-4-(trifluoromethyl)-1,6-dihydropyrimidin-5-yl)oxy)benzonitrile] | 8 nM |
| N#Cc1cc(Cl)cc(Oc2c(C(F)(F)F)ncn(Cc3cnc(C4CC4)[nH]c3=O)c2=O)c1 [Example 145, 3-chloro-5-((1-((2-cyclopropyl-6-oxo-1,6-dihydropyrimidin-5-yl)methyl)-6-oxo-4-(trifluoromethyl)-1,6-dihydropyrimidin-5-yl)oxy)benzonitrile] | 9 nM |
| N#Cc1cc(Cl)cc(Oc2c(C(F)(F)F)ncn(Cc3cc(-c4cnc5ccccc5c4)c(=O)[nH]n3)c2=O)c1 [Example 88, 3-chloro-5-((6-oxo-1-((6-oxo-5-(quinolin-3-yl)-1,6-dihydropyridazin-3-yl)methyl)-4-(trifluoromethyl)-1,6-dihydropyrimidin-5-yl)oxy)benzonitrile] | 17 nM |
| N#Cc1cc(Cl)cc(Oc2c(C(F)(F)F)ncn(Cc3cnc(C(N)=O)[nH]c3=O)c2=O)c1 [Example 154, 5-((5-(3-chloro-5-cyanophenoxy)-6-oxo-4-(trifluoromethyl)pyrimidin-1(6H)-yl)methyl)-6-oxo-1,6-dihydropyrimidine-2-carboxamide] | 42 nM |
| CC(F)(F)c1ncn(Cc2cc(C(F)F)n[nH]c2=O)c(=O)c1Oc1cc(Cl)cc(C#N)c1 [Example 175, 3-chloro-5-((4-(1,1-difluoroethyl)-1-((6-(difluoromethyl)-3-oxo-2,3-dihydropyridazin-4-yl)methyl)-6-oxo-1,6-dihydropyrimidin-5-yl)oxy)benzonitrile] | 3 nM |
| N#Cc1cc(Cl)cc(Oc2c(C(F)(F)F)ncn(Cc3cnc[nH]c3=O)c2=O)c1 [Example 136, 3-chloro-5-((6-oxo-1-((6-oxo-1,6-dihydropyrimidin-5-yl)methyl)-4-(trifluoromethyl)-1,6-dihydropyrimidin-5-yl)oxy)benzonitrile] | 6 nM |
| N#Cc1cc(Cl)cc(Oc2c(C(F)(F)F)ncn(Cc3cnc(O)[nH]c3=O)c2=O)c1 [Example 135, 3-chloro-5-((1-((2-hydroxy-6-oxo-1,6-dihydropyrimidin-5-yl)methyl)-6-oxo-4-(trifluoromethyl)-1,6-dihydropyrimidin-5-yl)oxy)benzonitrile] | 8 nM |
| COc1ccc(-c2cc(Cn3cnc(C(F)(F)F)c(Oc4cc(Cl)cc(C#N)c4)c3=O)n[nH]c2=O)c(F)c1 [Example 45, 3-chloro-5-((1-((5-(2-fluoro-4-methoxyphenyl)-6-oxo-1,6-dihydropyridazin-3-yl)methyl)-6-oxo-4-(trifluoromethyl)-1,6-dihydropyrimidin-5-yl)oxy)benzonitrile] | 6 nM |
| CC(C)c1cc(Cn2cnc(C(F)(F)F)c(Oc3cc(Cl)cc(C#N)c3)c2=O)n[nH]c1=O [Example 10, 3-chloro-5-((1-((5-isopropyl-6-oxo-1,6-dihydropyridazin-3-yl)methyl)-6-oxo-4-(trifluoromethyl)-1,6-dihydropyrimidin-5-yl)oxy)benzonitrile] | 7 nM |
| N#Cc1cc(Cl)cc(Oc2c(C(F)(F)F)ncn(Cc3cc(-c4cccnc4)c(=O)[nH]n3)c2=O)c1 [Example 73, 3-chloro-5-((6-oxo-1-((6-oxo-5-(pyridin-3-yl)-1,6-dihydropyridazin-3-yl)methyl)-4-(trifluoromethyl)-1,6-dihydropyrimidin-5-yl)oxy)benzonitrile] | 11 nM |
| N#Cc1cccc(Oc2c(C(F)(F)F)ncn(Cc3cc(-c4ccc(F)cc4)c(=O)[nH]n3)c2=O)c1F [Example 165, 2-fluoro-3-((1-((5-(4-fluorophenyl)-6-oxo-1,6-dihydropyridazin-3-yl)methyl)-6-oxo-4-(trifluoromethyl)-1,6-dihydropyrimidin-5-yl)oxy)benzonitrile] | 3 nM |
| CS(=O)(=O)c1cccc(-c2cc(Cn3cnc(C(F)(F)F)c(Oc4cc(Cl)cc(C#N)c4)c3=O)n[nH]c2=O)c1 [Example 70, 3-chloro-5-((1-((5-(3-(methylsulfonyl)phenyl)-6-oxo-1,6-dihydropyridazin-3-yl)methyl)-6-oxo-4-(trifluoromethyl)-1,6-dihydropyrimidin-5-yl)oxy)benzonitrile] | 15 nM |
| CC(F)(F)c1ncn(Cc2cc(-c3ccc(F)cc3)c(=O)[nH]n2)c(=O)c1Oc1cc(Cl)cc(C#N)c1 [Example 170, 3-chloro-5-((4-(1,1-difluoroethyl)-1-((5-(4-fluorophenyl)-6-oxo-1,6-dihydropyridazin-3-yl)methyl)-6-oxo-1,6-dihydropyrimidin-5-yl)oxy)benzonitrile] | 5 nM |
| Cn1nc(Cn2cnc(C(F)(F)F)c(Oc3cc(Cl)cc(C#N)c3)c2=O)cc(Br)c1=O [Example 23] | 38 nM |
| COc1ccc(F)cc1-c1cc(Cn2cnc(C(F)(F)F)c(Oc3cc(Cl)cc(C#N)c3)c2=O)n[nH]c1=O [Example 59, 3-chloro-5-((1-((5-(5-fluoro-2-methoxyphenyl)-6-oxo-1,6-dihydropyridazin-3-yl)methyl)-6-oxo-4-(trifluoromethyl)-1,6-dihydropyrimidin-5-yl)oxy)benzonitrile] | 125 nM |
| N#Cc1cc(Cl)cc(Oc2c(C(F)(F)F)ncn(Cc3cc(-c4ccc(F)c(F)c4)c(=O)[nH]n3)c2=O)c1 [Example 29, 3-chloro-5-((1-((5-(3,4-difluorophenyl)-6-oxo-1,6-dihydropyridazin-3-yl)methyl)-6-oxo-4-(trifluoromethyl)-1,6-dihydropyrimidin-5-yl)oxy)benzonitrile] | 3 nM |
| CNc1ncc(Cn2cnc(C(F)(F)F)c(Oc3cc(Cl)cc(C#N)c3)c2=O)c(OC)n1 [Example 138, 3-chloro-5-((1-((4-methoxy-2-(methylamino)pyrimidin-5-yl)methyl)-6-oxo-4-(trifluoromethyl)-1,6-dihydropyrimidin-5-yl)oxy)benzonitrile] | 11 nM |
| N#Cc1cc(Cl)cc(Oc2c(C(F)(F)F)ncn(Cc3cc(C4CC(F)(F)C4)c(=O)[nH]n3)c2=O)c1 [Example 9, 3-chloro-5-((1-((5-(3,3-difluorocyclobutyl)-6-oxo-1,6-dihydropyridazin-3-yl)methyl)-6-oxo-4-(trifluoromethyl)-1,6-dihydropyrimidin-5-yl)oxy)benzonitrile] | 109 nM |
| N#Cc1cc(Cl)cc(Oc2c(C(F)(F)F)ncn(Cc3cnc(-c4ccccc4F)[nH]c3=O)c2=O)c1 [Example 147, 3-chloro-5-((1-((2-(2-fluorophenyl)-6-oxo-1,6-dihydropyrimidin-5-yl)methyl)-6-oxo-4-(trifluoromethyl)-1,6-dihydropyrimidin-5-yl)oxy)benzonitrile] | 17 nM |
